Like-named read-outs stand apart in the source and are kept apart here. Marks after values point to notes of the source that are not given here.
Key:
COX-2 = target: T1, COX-2 (Homo sapiens, UniProt P35354); test: COX-2 activity; type: biochemical; settings: concentrations up to 10 µM
T1 sequence (P35354 18-604): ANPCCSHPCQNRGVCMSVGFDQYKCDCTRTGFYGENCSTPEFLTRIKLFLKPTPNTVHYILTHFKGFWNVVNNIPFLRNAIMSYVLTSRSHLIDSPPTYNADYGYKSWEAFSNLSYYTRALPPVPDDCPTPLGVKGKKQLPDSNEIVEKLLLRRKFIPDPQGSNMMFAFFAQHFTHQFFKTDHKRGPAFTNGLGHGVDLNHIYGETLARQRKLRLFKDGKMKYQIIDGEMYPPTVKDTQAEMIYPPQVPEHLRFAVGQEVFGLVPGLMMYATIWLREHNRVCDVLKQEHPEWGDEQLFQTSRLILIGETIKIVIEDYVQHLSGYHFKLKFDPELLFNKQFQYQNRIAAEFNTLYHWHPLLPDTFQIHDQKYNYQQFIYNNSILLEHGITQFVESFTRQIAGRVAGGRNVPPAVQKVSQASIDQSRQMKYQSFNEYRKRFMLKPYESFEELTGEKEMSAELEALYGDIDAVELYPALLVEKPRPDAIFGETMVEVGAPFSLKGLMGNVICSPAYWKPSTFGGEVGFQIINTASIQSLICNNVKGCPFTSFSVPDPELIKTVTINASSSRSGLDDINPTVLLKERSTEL

mPGES = mPGES activity; type: biochemical; settings: concentrations up to 10 µM
HEK cells with FLAP = test: 5-LOX product formation in HEK cells that express FLAP
COX-1 = COX-1 (Homo sapiens, UniProt P23219); test: COX-1 activity; type: biochemical; settings: concentrations up to 10 µM
[1] = system: 5-LOX product formation in PMNL; test: 5-LOX product formation in PMNL stimulated with A23187 (cell-based); design: species or system human; settings: Homo sapiens, PMNL
Description: Briefly, first a cell-based assay allows to determine the inhibition of the 5-LOX product biosynthesis. The cell suspension contained human neutrophils (PMNL) or monocytes, wherein the cells were isolated from buffy coats obtained from healthy donors pooled by gender. An aliquot cell suspension was incubated with the candidate compound for 15 min at 37 °C. The cells are treated with calcium ionophore A23187 to stimulate 5-LOX product formation for further 10 min (37 °C), optionally in presence of various concentrations of AA. The reaction was stopped with 1 mL methanol on ice.
In both assays, product quantification was conducted with RP-HPLC and UV detection after solid phase extraction and addition of 200 ng prostaglandin B1 as internal standard.

15-LOX = type: cell-based; settings: neutrophils
Text: (§1) […]. […] This could be beneficial as the 15-LOX product 15-HETE is anti-inflammatory.

12-LOX = type: cell-based; settings: neutrophils, exogenous AA 10, 30 or 60 µM
Text: as §1

[2] = system: leukotriene mediated peritonitis; test: Zymosan-induced peritonitis model in mice; type: in vivo, CD1 male mice; settings: intraperitoneal, 30 min prior to zymosan
Description: Compound I-12 was evaluated in vivo in a peritonitis model in mice. The experimental protocols were approved by the Animal Care Committee of the University of Naples Federico II, in compliance with Italian regulations on protection of animals used for experimental and other scientific purpose (Ministerial Decree 116/92) as well as with the European Economic Community regulations (Official Journal of E.C. L 358/1 12/18/1986); protocol number: 2014/0018760 27th February 2014. CD1 male mice with an age of six to eight weeks were investigated. The leukotriene mediated peritonitis is induced by injection of 1 mg zymosan in 50 µl saline solution. 30 min prior to induction, the candidate compound was applied as intraperitoneal injection in different concentrations as well as DMSO as negative control and positive controls (MK886, zileuton). Results are given in Table 3, wherein […] and LTB 4 levels are measured as well as vascular permeability (VP) and the cell recruitment in the peritoneal cavity (Cell Rec). Table 3: Results from an in vivo study with a mouse peritonitis model
In Table 3, values in percent indicate the percent inhibition in respect to the vehicle control. Statistical significance is determined via ANOVA Bonferroni, wherein * indicates p<0.05; ** indicates p<0.01; *** indicates p<0.001 vs. vehicle. N indicates the number of investigated mice.

Sequence of COX-1 (P23219 24-599): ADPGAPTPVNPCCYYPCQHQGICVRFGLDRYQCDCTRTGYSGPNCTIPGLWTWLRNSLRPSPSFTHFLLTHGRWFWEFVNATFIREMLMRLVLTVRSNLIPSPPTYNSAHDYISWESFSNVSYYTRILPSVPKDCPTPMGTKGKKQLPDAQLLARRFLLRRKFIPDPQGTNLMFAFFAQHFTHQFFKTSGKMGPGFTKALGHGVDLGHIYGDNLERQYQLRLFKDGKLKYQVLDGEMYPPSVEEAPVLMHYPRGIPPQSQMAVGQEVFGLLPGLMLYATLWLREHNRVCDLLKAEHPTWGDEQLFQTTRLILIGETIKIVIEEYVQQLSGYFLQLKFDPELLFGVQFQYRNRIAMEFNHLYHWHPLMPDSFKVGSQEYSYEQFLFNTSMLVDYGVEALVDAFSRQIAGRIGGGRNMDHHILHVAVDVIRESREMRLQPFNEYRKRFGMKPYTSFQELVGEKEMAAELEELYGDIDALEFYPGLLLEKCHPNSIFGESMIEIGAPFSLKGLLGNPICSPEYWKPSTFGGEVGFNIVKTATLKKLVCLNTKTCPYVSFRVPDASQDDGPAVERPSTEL

In the case of `Cc1cc(OCc2nc3ccccc3s2)ccc1NC(=O)Nc1ccc(Cl)c(Cl)c1` [Compound I-12, N-[4-(2-benzothiazolylmethoxy)-2-methylphenyl]-N'-(3,4-dichlorophenyl)-urea], the COX-2 activity (COX-2) is reported as “not affected”, the mPGES (mPGES) is reported as “not affected” and the “effect on 5-LOX product formation” value (HEK cells with FLAP) is reported as “inhibits the product formation”. For the same molecule, the COX-1 activity (COX-1) was “not affected”, the IC50 ([1]; male PMNL cells, Exogenous AA 3 µM, read-out: IC50 values for 5-LOX product formation) was 380 nM and the IC50 ([1]; male PMNL cells, Exogenous AA 10 µM, read-out: IC50 values for 5-LOX product formation) was 1600 nM. It also gave an IC50 ([1]; male PMNL cells, Exogenous AA 30 µM, read-out: IC50 values for 5-LOX product formation) of 2100 nM, an IC50 ([1]; male PMNL cells, Exogenous AA 60 µM, read-out: IC50 values for 5-LOX product formation) of 9100 nM and an IC50 ([1]; read-out: Effect on 5-LOX product formation in PMNL, IC50) of 240 nM. The “product formation of 15-LOX (15-HETE)” value (15-LOX; 10 µM AA) was “increase of the product formation”, the “product formation of 15-LOX” value (15-LOX; exogenous AA 10, 30 or 60 µM) was “did not inhibit” and the “product formation of 12-LOX” value (12-LOX) was “did not inhibit”. The “Cell Rec (cell recruitment in the peritoneal cavity)” value ([2]; 1 mg) was 5.93±0.321 10^6/ml, the “Cell Rec, percent inhibition in respect to the vehicle control” value (shortened to “Cell Rec, percent inhibition”) ([2]; 1 mg) was 22% and the LTB4 ([2]; 1 mg) was 280 ± 42.8 pg/mL. For the same molecule, the “LTB4, percent inhibition in respect to the vehicle control” value (from here on “LTB4, percent inhibition”) ([2]; 1 mg) was 59%**, the LTC4 ([2]; 1 mg) was 26.0 ± 9.47 ng/mL and the “LTC4, percent inhibition in respect to the vehicle control” value (“LTC4, percent inhibition” for short) ([2]; 1 mg) was 70%***. For the same molecule, the “Cell Rec (cell recruitment in the peritoneal cavity)” value ([2]; 3 mg) was 4.4±0.509 10^6/ml, the “Cell Rec, percent inhibition” value ([2]; 3 mg) was 42%*** and the LTB4 ([2]; 3 mg) was 345 ± 69.2 pg/mL. For the same molecule, the “LTB4, percent inhibition” value ([2]; 3 mg) was 50%*, the LTC4 ([2]; 3 mg) was 30.5 ± 10.3 ng/mL and the “LTC4, percent inhibition” value ([2]; 3 mg) was 66%***. For the same molecule, the “Cell Rec (cell recruitment in the peritoneal cavity)” value ([2]; 10 mg) was 3.36±0.439 10^6/ml, the “Cell Rec, percent inhibition” value ([2]; 10 mg) was 56%*** and the LTB4 ([2]; 10 mg) was 193 ± 34.4 pg/mL. For the same molecule, the “LTB4, percent inhibition” value ([2]; 10 mg) was 72%***, the LTC4 ([2]; 10 mg) was 25.8 ± 2.66 ng/mL and the “LTC4, percent inhibition” value ([2]; 10 mg) was 70%***. For the same molecule, the “VP (vascular permeability)” value ([2]; 10 mg) was 0.347±0.09 abs 610 nm, the “VP, percent inhibition in respect to the vehicle control” value ([2]; 10 mg) was 38% and the “effect on 5-LOX product formation” value (HEK cells without FLAP) was “nearly no effect”.

From EP3315495A1, “N,N' -[…], N,N' -DIAR[…] N,N' -DIARY[…] FOR USE IN TREATMENT AND PREVENTION OF INFLAMMATORY DISEASE” (Universität Innsbruck, priority 2016, dated 2018)
